In brackets after ≈: the same amount, converted by molar mass.
Test system: not listed separately
Test: Kinetic solubility in phosphate-buffered saline, pH 7.4
Format: physicochemical
Conditions: phosphate-buffered saline, 25 °C, pH 7.4, aqueous buffer, kinetic from dmso stock, Table S1; incubation 1; read-out: PBS solubility, pH 7.4, Incubation 1
Method: Analysis of Aqueous Solubility […]
compound (Ondansetron) were assessed for kinetic solubility in phosphate-buffered saline, pH […]
Phosphate buffered saline, pH 7.4 (Sigma-Aldrich, USA; Cat #P3813) […]
MultiScreen HTS 96 Well Filter Plates (Millipore, Ireland; Cat # MSGVS2210) […]
Matrix Multichannel Electronic Pipette 2-125 µL, 5-250 µL, 15-1250 µL (Thermo Scientific, […]
Vacuum pump (Millipore, USA; Model # XX5500000)
The measurements were performed using SpectraMax Plus reader in UV-Vis mode. Acquisition and analysis of the data were performed using SoftMax Pro v.5.4 (Molecular Devices) and Excel […]
Kinetic solubility assay was performed according to the Enamine’s aqueous solubility SOP.
Briefly, using a 20 mM stock solution of the compound in 100% DMSO dilutions were prepared to a theoretical concentration of 400 μM in duplicates in phosphate-buffered saline pH 7.4 […]
for two hours and then filtered through HTS filter plates using a vacuum manifold. The filtrates of test compounds were diluted 2-fold with acetonitrile with 2% DMSO before measuring.
In parallel, compound dilutions in acetonitrile/PBS (1:1) were prepared to theoretical […]
DMSO to generate calibration curves. Ondansetron was used as reference compound to control proper assay performance. 200 μl of each sample was transferred to 96-well plate and measured in 200-550 nm range with 5 nm step.
The concentrations of compounds in PBS filtrate are calculated using a dedicated Microsoft Excel calculation script. Proper absorbance wavelengths for calculations are selected for each compound manually based on absorbance maximums (absolute absorbance unit values for the minimum and maximum concentration points within 0 – 3 OD range). Each of the final datasets is additionally visually evaluated by the operator and goodness of fit (R2) is calculated for each calibration curve. The effective range of this assay is approximately 2-400 μM and the […]

Q: Which solubility at 2 h does the source give for `O=C(O)C1C2CC1(C(=O)Nc1ccc(S(=O)(=O)Nc3nccs3)cc1)CO2` (stereo not drawn) [Compound 33] here?
A: Its solubility at 2 h is 100 µM (≈ 40.9 µg/mL).

Same assay, conditions: phosphate-buffered saline, 25 °C, pH 7.4, aqueous buffer, kinetic from dmso stock, Table S1; incubation 2; read-out: PBS solubility, pH 7.4, Incubation 2

Q: With `O=C(O)C1C2CC1(C(=O)Nc1ccc(S(=O)(=O)Nc3nccs3)cc1)CO2` (stereo not drawn) [Compound 33] as the compound, how does the solubility at 2 h read?
A: The solubility at 2 h was 102 µM (≈ 41.8 µg/mL).

Same assay, conditions: phosphate-buffered saline, 25 °C, pH 7.4, aqueous buffer, kinetic from dmso stock, Table S1; mean of 2 incubations; 25 °C, 2 h, 2% DMSO; effective range approx. 2-400 μM; read-out: PBS solubility, pH 7.4, Mean

Q: Which solubility at 2 h does the source give for `O=C(O)C1C2CC1(C(=O)Nc1ccc(S(=O)(=O)Nc3nccs3)cc1)CO2` (stereo not drawn) [Compound 33] here?
A: The solubility at 2 h was 101 µM (≈ 41.4 µg/mL).

Same assay, conditions: phosphate-buffered saline, 25 °C, pH 7.4, aqueous buffer, kinetic from dmso stock, experimental kinetic solubility in phosphate-buffered saline at pH 7.4; Fig. 3; read-out: Solubility

Q: With `O=C(O)C1C2CC1(C(=O)Nc1ccc(S(=O)(=O)Nc3nccs3)cc1)CO2` (stereo not drawn) [Compound 33] as the compound, how does the solubility at 2 h read?
A: The solubility at 2 h was 158 µM (≈ 64.7 µg/mL).

Test system: human liver microsomes
Test: Metabolic stability in human liver microsomes
Format: in vitro ADME
Conditions: human liver microsomes
Method: (§1) The data acquisition and system control was performed using Analyst 1.6.3 software from AB Sciex. Methods Microsomal incubations were carried out in 96-well plates in 5 aliquots of 30 μL each (one for each time point). […] In the control reactions the NADPH-cofactor system was substituted with phosphate buffer. […] Each reaction was performed in duplicates. Five time points over 40 minutes were analyzed. The reactions were stopped by adding 4 volumes of methanol containing internal standard to incubation aliquots, followed by protein sedimentation by centrifuging at 5500 rpm for 4 minutes. […]. Supernatants were analyzed using the HPLC system coupled with tandem mass spectrometer. […] In some cases, the last time point is excluded from the calculations to ensure acceptable logarithmic linearity of decay.

Q: Which “metabolic stability (in words)” value does the source give for `O=C(O)C1C2CC1(C(=O)Nc1ccc(S(=O)(=O)Nc3nccs3)cc1)CO2` (stereo not drawn) [Compound 33] here?
A: Its value is “metabolically stable”.

Test system: not listed separately
Test: Metabolic stability in human liver microsomes
Format: in vitro ADME
Conditions: both sexes, human, liver microsomes, pH 7.4, human liver microsomes, 2 μM, 37 °C, with NADPH; 7 min
Method: as §1

Q: For `O=C(O)C1C2CC1(C(=O)Nc1ccc(S(=O)(=O)Nc3nccs3)cc1)CO2` (stereo not drawn) [Compound 33], which remaining at […], 2 µM is on record?
A: The remaining at […], 2 µM was 111%.

Same assay, conditions: both sexes, human, liver microsomes, pH 7.4, human liver microsomes, 2 μM, 37 °C, with NADPH; 15 min

Q: For `O=C(O)C1C2CC1(C(=O)Nc1ccc(S(=O)(=O)Nc3nccs3)cc1)CO2` (stereo not drawn) [Compound 33], which remaining at […], 2 µM is on record?
A: Its remaining at […], 2 µM is 111%.

Same assay, conditions: both sexes, human, liver microsomes, pH 7.4, human liver microsomes, 2 μM, 37 °C, with NADPH; 25 min; read-out: % Remaining, Mean of 2

Q: With `O=C(O)C1C2CC1(C(=O)Nc1ccc(S(=O)(=O)Nc3nccs3)cc1)CO2` (stereo not drawn) [Compound 33] as the compound, how does the remaining at 25 min, 2 µM read?
A: Its remaining at 25 min, 2 µM is 109%.

Same assay, conditions: both sexes, human, liver microsomes, pH 7.4, human liver microsomes, 2 μM, 37 °C, with NADPH; 40 min; read-out: % Remaining, Mean of 2

Q: For `O=C(O)C1C2CC1(C(=O)Nc1ccc(S(=O)(=O)Nc3nccs3)cc1)CO2` (stereo not drawn) [Compound 33], which remaining at 40 min, 2 µM is on record?
A: The remaining at 40 min, 2 µM was 106%.

Same assay, conditions: both sexes, human, liver microsomes, pH 7.4, human liver microsomes, 0.42 mg protein per ml; Table S3; * approximate due to high stability; read-out: Clint

Q: For `O=C(O)C1C2CC1(C(=O)Nc1ccc(S(=O)(=O)Nc3nccs3)cc1)CO2` (stereo not drawn) [Compound 33], which microsomal CLint at 2 µM is on record?
A: The microsomal CLint at 2 µM was roughly 1 µL/min/mg.

Same assay, conditions: both sexes, human, liver microsomes, pH 7.4, human liver microsomes; * approximate due to high stability; read-out: t1/2

Q: With `O=C(O)C1C2CC1(C(=O)Nc1ccc(S(=O)(=O)Nc3nccs3)cc1)CO2` (stereo not drawn) [Compound 33] as the compound, how does the half-life at 2 µM read?
A: The half-life at 2 µM was roughly 19.8 h.

Same assay, conditions: both sexes, human, liver microsomes, pH 7.4, human liver microsomes; Fig. 3; read-out: CIint, intrinsic clearance

Q: For `O=C(O)C1C2CC1(C(=O)Nc1ccc(S(=O)(=O)Nc3nccs3)cc1)CO2` (stereo not drawn) [Compound 33], which microsomal CLint at 2 µM is on record?
A: The microsomal CLint at 2 µM was 1 µL/min/mg.

Same assay, conditions: both sexes, pH 7.4; human liver microsomes, no NADPH cofactor; 40 min; ** instability partially or completely not determined by CYP450 activity; read-out: % Remaining without cofactor, Mean of 2

Q: With `O=C(O)C1C2CC1(C(=O)Nc1ccc(S(=O)(=O)Nc3nccs3)cc1)CO2` (stereo not drawn) [Compound 33] as the compound, how does the remaining at 40 min, 2 µM read?
A: Its remaining at 40 min, 2 µM is 92%.

Test system: not listed separately
Test: physchem
Format: physicochemical
Conditions: Table S2; n-octanol/PBS pH 7.4; incubation 1
Method: Determination of Distribution Coefficient (LogD, pH 7.4) […]
n-octanol – phosphate buffered saline (PBS), pH 7.4. Distribution coefficient (or LogD) is a […]
Phosphate buffered saline, tablet (Sigma-Aldrich, USA; Cat # P4417)
Acetic acid (Enamine, Ukraine.)
DMSO stock solutions of the test compounds 10mM
Gradient HPLC system (Shimadzu, Japan)
MTR22 Multi Mix Rotator (UNICO, USA)
Laboratory Centrifuge, Sigma 4-15C, Qiagen (SIGMA GmbH, Germany) […]
allowed to mix in a rotator for 1 h at 30 rpm. Phase separation was assured by centrifugation for […]
dilution. The samples (both phases) were analyzed using a HPLC system coupled with a tandem mass spectrometer. Mebendazole was used as a reference compound. […]
where: SO – peak area of the analyte in octanol phase
S P – peak area of the analyte in PBS buffer do – dilution coefficient for octanol phase dp – dilution coefficient for aqueous phase

Q: For `O=C(O)C1C2CC1(C(=O)Nc1ccc(S(=O)(=O)Nc3nccs3)cc1)CO2` (stereo not drawn) [Compound 33], which “D (partition ratio), incubation 1” value is on record?
A: Its value is 2.39E-01.

Same assay, conditions: Table S2; n-octanol/PBS pH 7.4; incubation 2

Q: For `O=C(O)C1C2CC1(C(=O)Nc1ccc(S(=O)(=O)Nc3nccs3)cc1)CO2` (stereo not drawn) [Compound 33], which “D (partition ratio), incubation 2” value is on record?
A: The value was 1.93E-02.

Same assay, conditions: Table S2; n-octanol/PBS pH 7.4; incubation 3

Q: With `O=C(O)C1C2CC1(C(=O)Nc1ccc(S(=O)(=O)Nc3nccs3)cc1)CO2` (stereo not drawn) [Compound 33] as the compound, how does the “D (partition ratio), incubation 3” value read?
A: Its value is 5.50E-01.

Same assay, conditions: pH 7.4, LogD, pH 7.4 (mean)

Q: With `O=C(O)C1C2CC1(C(=O)Nc1ccc(S(=O)(=O)Nc3nccs3)cc1)CO2` (stereo not drawn) [Compound 33] as the compound, how does the logD at 1 h read?
A: The logD at 1 h was -0.87.

Same assay, conditions: pH 7.4, LogD, pH 7.4, incubation 1

Q: With `O=C(O)C1C2CC1(C(=O)Nc1ccc(S(=O)(=O)Nc3nccs3)cc1)CO2` (stereo not drawn) [Compound 33] as the compound, how does the logD at 1 h read?
A: Its logD at 1 h is -0.62.

Same assay, conditions: pH 7.4, LogD, pH 7.4, incubation 2

Q: Which logD at 1 h does the source give for `O=C(O)C1C2CC1(C(=O)Nc1ccc(S(=O)(=O)Nc3nccs3)cc1)CO2` (stereo not drawn) [Compound 33] here?
A: The logD at 1 h was -1.72.

Same assay, conditions: pH 7.4, LogD, pH 7.4, incubation 3

Q: For `O=C(O)C1C2CC1(C(=O)Nc1ccc(S(=O)(=O)Nc3nccs3)cc1)CO2` (stereo not drawn) [Compound 33], which logD at 1 h is on record?
A: Its logD at 1 h is -0.26.

Same assay, conditions: pH 7.4, logD (7.4)

Q: With `O=C(O)C1C2CC1(C(=O)Nc1ccc(S(=O)(=O)Nc3nccs3)cc1)CO2` (stereo not drawn) [Compound 33] as the compound, how does the logD at 1 h read?
A: Its logD at 1 h is less than 1.
